Measured values published in patent publication US20050238685A1, “Method of binding a compound to a surface” (priority 2002, published 2005).

Assays:
[1] = Glucose oxidase and peroxidase immobilized on hydrophobin-coated TEFLON sheets, o-dianisidine colour assay at 435 nm; type: biochemical; conditions: hydrophobin-coated TEFLON sheet (SC3, trSC3, SC4), partner enzyme in solution
Procedure: The coating was achieved by incubating the TEFLON™ at 25° C. in 2 ml of a 100 μg/ml hydrophobin solution (here SC3, trSC3 and SC4 were used in separate experiments) in a 3 ml glass vial for 15 minutes. The sheets were removed from the hydrophobin solution and were washed with large amounts of water to remove any unbound hydrophobin.
Both sheets were placed in a container containing o-dianisidine and, upon addition of glucose, the solution became colored.
The functionalized TEFLON™ is still active after storage for several weeks at 4° C.

[2] = Different enzymes immobilized via SC3 hydrophobin on TEFLON, spectrophotometry at 412 and 435 nm; type: biochemical; conditions: SC3-coated TEFLON
Procedure: The surface was first coated with SC3 hydrophobin by immersion in the protein aqueous solution (0.3 mg/mL) during approximately 30 minutes. The obtained modified surface was then immersed in an aqueous enzyme solution during approximately 30 minutes. After each step, the TEFLON™ surface was rinsed with an adequate buffer solution. Activity of the immobilized enzymes was followed by spectrophotometry at 412 and 435 nm after immersion of the functionalized surface in the corresponding substrate solution. The optical density of the solution increases after the immersion of the functionalized surface and stays constant after its removal. […] The functionalized TEFLON® was stored at 4° C. in an Eppendorf tube containing a buffer solution.
(Biocatalysts, Wales; final concentration 2.1 mg/mL), lipase from Candida cylindracea (Biocatalysts, Wales; final concentration 0.25 mg/mL), porcine liver esterase (SIGMA; 41 U/mg of solid, final concentration 2.4 mg/mL), bovine pancreas trypsin (SIGMA; 8,750 U/mg of solid).

[3] = hydrophobin-coated glassy carbon electrode, phosphate buffer pH 7
Procedure: Glassy carbon electrode was coated with hydrophobin by placing the electrode in a solution of hydrophobin (100 μg/ml) and incubating for 15 minutes, after which the electrode was thoroughly rinsed with water.
The electrode, modified and functionalized with the enzyme, was placed in a three electrode system, including an Ag/AgCl reference electrode and a Pt counter electrode, using phosphate buffer pH 7 (25 mM).
The modified electrode was stored in a sealed container, not in liquid, at 4° C., and tested frequently for activity and response to glucose.

[4] = Cholesterol oxidase immobilized on hydrophobin-coated glassy carbon electrode, current response to cholesterol; type: biochemical; conditions: phosphate buffer pH 7
Excerpt: To overcome the poor solubility of cholesterol in water, the cholesterol was solubilized in isopropanol with Triton in phosphate buffer (Ropers, M.-H. et al., 2001, Phys. Chem. Chem. Phys. 3:240-245).

peroxidase: horseradish peroxidase (SIGMA)
activity of immobilized enzyme (oxidation of o-dianisidine upon addition of glucose) [1]: Coloring of the solution | state of immobilized enzymes (denaturation, desorption) [2]: not denatured and are not desorbed from the surface | function after storage ([2]; 4° C. in buffer solution): still functional after several weeks

glucose oxidase
activity of glucose oxidase upon immobilization on the hydrophobin layer [3]: remained active | activity of immobilized enzyme (oxidation of o-dianisidine upon addition of glucose) [1]: absorption at 435 nm was observed

firefly luciferase: firefly luciferase (Roche, cat no. 411523)
activity of enzyme attached to bare wells: not active

cholesterol oxidase
activity of immobilized cholesterol oxidase [4]: remaining active
